# Assay results as given in patent US20250114345A1, “COMPOUNDS AND COMPOSITIONS AS CBP/P300 DEGRADERS AND USES THEREOF” (Oncopia Therapeutics, Inc. d/b/a/ SK Life Science Labs, priority 2023, published 2025).
# Key:
# [1] = target: T1, CBP (Homo sapiens, UniProt Q92793); assay: CBP degradation, HiBit technology in A549 CBP HiBit cells (24 h); type: cell-based; details: 24 hrs post treatment
# T1 construct: host or cells: A549 CBP HiBit cells
# Protocol: p300 and CBP degradation potency and Dmax were determined using in cell western (ICW) assay technology in H1299 cells or HiBit technology in A549 HiBit cells.
# A549 P300 HiBit and A549 CBP HiBit cells were plated in separate 384-well, TC treated, white-opaque, flat-bottomed microplate. Cells were plated at a cell density of 0.2×10^4 cells per well in assay media comprised of F-12K, 10% heat inactivated FBS, and 1% penicillin/streptomycin. Assay microplates containing HiBit cells were placed in a 37° C., 5% CO2, tissue culture incubator and left to equilibrate overnight. The next day cells were treated with serial dilutions of test compound made up of 10 mM stock solutions in DMSO. 384-Well plates containing treated cells were then placed back into a 37° C., 5% CO2, tissue culture incubator. Assay microplates containing A549 P300 HiBit cells were incubated for 2 hrs post treatment before P300 destruction was assessed, while microplates containing A549 CBP HiBit cells were incubated for 24 hrs post treatment before CBP destruction was determined. On the day of each assay time point, microplates were removed from the tissue culture incubator and prepared HiBit Lytic detection buffer (Promega, cat #N3O40) was added to each plate. Plates were covered with aluminum foil and incubated for ten minutes at room temperature on an orbital shaker. After incubation, luminescent signal of each plate was measured using the Envision instrument (Perkin Elmer).
# [2] = target: T2, p300 (Homo sapiens, UniProt Q09472); assay: P300 degradation, HiBit technology in A549 P300 HiBit cells (2 h); type: cell-based; details: 2 hrs post treatment; for Dmax: A549, A549 P300 HiBit cells; for DC50: A549 P300 HiBit cells
# T2 construct: host or cells: A549 P300 HiBit cells
# Outline: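 Luminescence after lytic HiBiT detection (10 min, room temperature) gave degradation potency and Dmax. Before that, knock-in A549 cells grown overnight in F-12K/10% HI-FBS were exposed to serially diluted compound at 37 °C, 5% CO2 for the assay time stated.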
# T1 sequence (Q92793 whole entry): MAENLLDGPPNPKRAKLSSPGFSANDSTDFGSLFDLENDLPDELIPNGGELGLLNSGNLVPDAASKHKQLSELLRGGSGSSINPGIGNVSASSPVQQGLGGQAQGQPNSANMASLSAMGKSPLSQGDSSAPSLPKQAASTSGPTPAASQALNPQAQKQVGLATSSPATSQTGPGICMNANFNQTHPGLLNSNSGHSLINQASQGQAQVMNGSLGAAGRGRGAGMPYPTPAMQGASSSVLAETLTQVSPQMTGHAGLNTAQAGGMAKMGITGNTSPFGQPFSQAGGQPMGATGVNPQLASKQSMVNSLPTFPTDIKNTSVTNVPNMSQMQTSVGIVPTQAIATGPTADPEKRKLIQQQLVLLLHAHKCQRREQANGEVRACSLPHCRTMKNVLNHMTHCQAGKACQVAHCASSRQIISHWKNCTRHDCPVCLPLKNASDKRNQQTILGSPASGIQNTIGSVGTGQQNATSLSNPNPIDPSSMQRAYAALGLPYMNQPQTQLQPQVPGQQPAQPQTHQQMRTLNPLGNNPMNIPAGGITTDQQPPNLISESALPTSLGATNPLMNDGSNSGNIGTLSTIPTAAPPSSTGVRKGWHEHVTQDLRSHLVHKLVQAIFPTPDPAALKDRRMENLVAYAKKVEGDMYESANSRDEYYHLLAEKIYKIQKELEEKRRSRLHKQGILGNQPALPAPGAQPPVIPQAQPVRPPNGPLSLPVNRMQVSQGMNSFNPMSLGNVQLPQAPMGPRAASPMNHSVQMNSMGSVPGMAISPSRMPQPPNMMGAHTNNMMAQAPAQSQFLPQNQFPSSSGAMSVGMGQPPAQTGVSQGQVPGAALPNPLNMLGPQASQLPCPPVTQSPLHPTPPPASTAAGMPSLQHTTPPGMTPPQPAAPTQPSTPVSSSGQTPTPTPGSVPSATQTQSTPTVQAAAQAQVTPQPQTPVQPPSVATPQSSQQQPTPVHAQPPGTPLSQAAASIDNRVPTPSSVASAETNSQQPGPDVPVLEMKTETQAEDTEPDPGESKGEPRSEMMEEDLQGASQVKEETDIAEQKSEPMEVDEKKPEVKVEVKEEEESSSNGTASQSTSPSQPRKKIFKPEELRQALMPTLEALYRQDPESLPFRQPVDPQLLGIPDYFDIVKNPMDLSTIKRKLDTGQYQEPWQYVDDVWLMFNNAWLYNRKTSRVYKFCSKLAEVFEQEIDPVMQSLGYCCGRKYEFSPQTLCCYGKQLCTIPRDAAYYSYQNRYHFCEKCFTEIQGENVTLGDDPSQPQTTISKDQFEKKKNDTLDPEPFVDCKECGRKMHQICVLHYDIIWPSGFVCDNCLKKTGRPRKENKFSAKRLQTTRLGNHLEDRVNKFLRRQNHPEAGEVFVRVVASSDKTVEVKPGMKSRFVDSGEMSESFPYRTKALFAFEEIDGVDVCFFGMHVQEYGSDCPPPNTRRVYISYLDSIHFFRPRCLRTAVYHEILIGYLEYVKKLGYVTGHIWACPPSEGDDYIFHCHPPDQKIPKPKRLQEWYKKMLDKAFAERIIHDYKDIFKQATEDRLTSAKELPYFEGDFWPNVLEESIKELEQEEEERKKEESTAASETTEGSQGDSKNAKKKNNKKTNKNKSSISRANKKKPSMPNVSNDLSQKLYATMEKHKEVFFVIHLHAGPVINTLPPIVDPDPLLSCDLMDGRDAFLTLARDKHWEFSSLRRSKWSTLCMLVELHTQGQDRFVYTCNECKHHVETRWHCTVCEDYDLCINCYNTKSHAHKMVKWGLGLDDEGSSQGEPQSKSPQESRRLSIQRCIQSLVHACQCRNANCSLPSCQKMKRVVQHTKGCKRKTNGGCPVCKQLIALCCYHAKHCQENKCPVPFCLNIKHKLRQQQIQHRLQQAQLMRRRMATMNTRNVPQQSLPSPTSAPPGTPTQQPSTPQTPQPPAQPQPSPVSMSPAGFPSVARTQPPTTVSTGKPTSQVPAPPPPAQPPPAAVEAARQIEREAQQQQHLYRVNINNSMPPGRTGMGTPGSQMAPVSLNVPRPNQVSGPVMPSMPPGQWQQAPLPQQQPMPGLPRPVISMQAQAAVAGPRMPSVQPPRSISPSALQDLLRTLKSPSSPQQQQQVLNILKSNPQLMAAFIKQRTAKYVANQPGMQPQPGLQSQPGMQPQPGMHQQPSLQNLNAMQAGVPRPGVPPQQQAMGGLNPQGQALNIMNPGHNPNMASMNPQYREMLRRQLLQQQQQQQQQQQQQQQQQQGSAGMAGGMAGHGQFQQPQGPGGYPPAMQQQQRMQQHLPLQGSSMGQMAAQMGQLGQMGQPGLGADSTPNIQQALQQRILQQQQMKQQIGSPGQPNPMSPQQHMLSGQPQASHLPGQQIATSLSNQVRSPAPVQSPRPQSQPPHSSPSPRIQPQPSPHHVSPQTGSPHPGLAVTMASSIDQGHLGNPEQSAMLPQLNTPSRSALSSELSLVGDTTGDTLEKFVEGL
# T2 sequence (Q09472 whole entry): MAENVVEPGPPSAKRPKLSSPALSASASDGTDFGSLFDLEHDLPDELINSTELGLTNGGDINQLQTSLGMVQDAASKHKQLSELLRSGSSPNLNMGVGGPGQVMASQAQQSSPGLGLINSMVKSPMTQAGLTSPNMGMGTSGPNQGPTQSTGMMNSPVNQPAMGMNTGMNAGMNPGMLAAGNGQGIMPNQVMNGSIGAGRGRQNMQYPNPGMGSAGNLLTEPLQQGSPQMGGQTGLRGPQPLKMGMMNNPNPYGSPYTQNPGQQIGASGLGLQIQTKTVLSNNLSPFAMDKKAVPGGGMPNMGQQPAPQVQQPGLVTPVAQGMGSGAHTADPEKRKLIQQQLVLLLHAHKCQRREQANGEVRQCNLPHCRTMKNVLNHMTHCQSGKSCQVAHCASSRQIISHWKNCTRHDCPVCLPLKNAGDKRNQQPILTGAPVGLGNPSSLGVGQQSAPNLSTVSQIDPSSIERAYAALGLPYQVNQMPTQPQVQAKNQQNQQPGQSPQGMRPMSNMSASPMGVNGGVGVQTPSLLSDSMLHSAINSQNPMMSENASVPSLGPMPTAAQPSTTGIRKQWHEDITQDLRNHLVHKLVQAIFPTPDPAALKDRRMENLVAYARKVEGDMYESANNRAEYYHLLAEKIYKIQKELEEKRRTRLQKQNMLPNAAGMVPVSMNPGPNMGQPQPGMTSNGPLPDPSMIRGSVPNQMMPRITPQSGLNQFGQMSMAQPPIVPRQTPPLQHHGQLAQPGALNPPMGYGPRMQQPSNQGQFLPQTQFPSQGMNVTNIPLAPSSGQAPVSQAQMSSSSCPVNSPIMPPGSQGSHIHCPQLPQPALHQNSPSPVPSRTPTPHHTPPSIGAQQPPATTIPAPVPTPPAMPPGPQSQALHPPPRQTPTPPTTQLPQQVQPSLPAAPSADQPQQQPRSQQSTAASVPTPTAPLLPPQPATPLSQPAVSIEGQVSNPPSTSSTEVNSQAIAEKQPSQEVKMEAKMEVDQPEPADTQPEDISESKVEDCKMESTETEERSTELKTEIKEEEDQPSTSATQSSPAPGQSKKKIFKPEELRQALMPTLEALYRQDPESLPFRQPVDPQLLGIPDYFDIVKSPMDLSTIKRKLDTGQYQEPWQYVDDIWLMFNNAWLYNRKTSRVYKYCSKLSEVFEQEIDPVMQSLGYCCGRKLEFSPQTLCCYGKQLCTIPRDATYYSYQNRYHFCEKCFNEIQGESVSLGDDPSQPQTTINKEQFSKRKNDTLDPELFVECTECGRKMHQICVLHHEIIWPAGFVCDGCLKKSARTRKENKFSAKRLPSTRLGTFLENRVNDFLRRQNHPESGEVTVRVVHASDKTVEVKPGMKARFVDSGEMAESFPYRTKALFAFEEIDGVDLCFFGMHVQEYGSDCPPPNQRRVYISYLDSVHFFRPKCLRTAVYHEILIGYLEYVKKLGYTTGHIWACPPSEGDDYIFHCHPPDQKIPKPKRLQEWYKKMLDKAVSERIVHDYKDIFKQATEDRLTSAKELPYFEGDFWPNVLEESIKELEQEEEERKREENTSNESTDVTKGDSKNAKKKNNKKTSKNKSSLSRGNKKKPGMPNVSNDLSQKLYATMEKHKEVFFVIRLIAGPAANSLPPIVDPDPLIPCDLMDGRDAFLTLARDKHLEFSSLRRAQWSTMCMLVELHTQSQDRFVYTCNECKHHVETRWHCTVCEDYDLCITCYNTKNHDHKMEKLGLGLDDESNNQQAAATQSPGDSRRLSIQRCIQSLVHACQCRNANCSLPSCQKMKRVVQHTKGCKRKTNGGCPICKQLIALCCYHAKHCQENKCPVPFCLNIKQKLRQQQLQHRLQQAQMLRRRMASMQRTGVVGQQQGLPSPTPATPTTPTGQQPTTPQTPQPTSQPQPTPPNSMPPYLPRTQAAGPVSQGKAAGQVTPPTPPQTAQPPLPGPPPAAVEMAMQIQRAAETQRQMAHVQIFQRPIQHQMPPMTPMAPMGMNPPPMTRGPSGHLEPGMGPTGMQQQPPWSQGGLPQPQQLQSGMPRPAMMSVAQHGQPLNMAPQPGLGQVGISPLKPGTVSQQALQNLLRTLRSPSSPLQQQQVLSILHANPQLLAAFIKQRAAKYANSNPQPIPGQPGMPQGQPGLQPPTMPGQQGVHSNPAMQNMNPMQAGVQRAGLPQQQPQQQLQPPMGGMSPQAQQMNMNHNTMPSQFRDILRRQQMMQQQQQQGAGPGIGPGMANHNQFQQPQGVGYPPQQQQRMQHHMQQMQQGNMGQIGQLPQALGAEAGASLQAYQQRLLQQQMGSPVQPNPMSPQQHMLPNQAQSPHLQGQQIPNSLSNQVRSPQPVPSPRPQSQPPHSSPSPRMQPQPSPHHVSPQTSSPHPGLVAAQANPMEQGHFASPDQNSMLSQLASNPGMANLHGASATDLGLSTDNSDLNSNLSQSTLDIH
DC50 [1] [nM],Dmax [1] [%],Dmax [2] [%],DC50 [2] [nM],Compound
> 1000,< 20,> 80,< 1,"Cc1cc2c(N3CCCc4nc(-c5ccc(C(=O)NCC#Cc6cc7c(C8CCC(=O)NC8=O)cccc7o6)nc5)ncc43)cc(C3COC3)nc2n(C)c1=O (stereo not drawn) [Example B163, 5-(5-(6,8-dimethyl-2-(oxetan-3-yl)-7-oxo-7,8-dihydro-1,8-naphthyridin-4-yl)-5,6,7,8-tetrahydropyrido[3,2-d]pyrimidin-2-yl)-N-(3-(4-(2,6-dioxopiperidin-3-yl)benzofuran-2-yl)prop-2-yn-1-yl)picolinamide]"
> 1000,< 20,> 80,1 to 9.9,"CC(C)c1cc(-c2cccc3cc(-c4ccc(C(=O)NCC#Cc5cc(OC6CCC(=O)NC6=O)nn5C)nc4)ncc23)cc2c1n(C)c(=O)n2C (stereo not drawn) [Example A29, N-(3-(3-((2,6-Dioxopiperidin-3-yl)oxy)-1-methyl-1H-pyrazol-5-yl)prop-2-yn-1-yl)-5-(8-(7-isopropyl-1,3-dimethyl-2-oxo-2,3-dihydro-1H-benzo[d]imidazol-5-yl)isoquinolin-3-yl)picolinamide]"
> 1000,< 20,60 to 79,1 to 9.9,"Cc1cc2c(N3CCCc4nc(-c5cnc(C(=O)NCC#Cc6cc7c(C8CCC(=O)NC8=O)cccc7o6)cn5)ncc43)cc(C3CCOCC3)cc2n(C)c1=O (stereo not drawn) [Example B87, 5-(5-(1,3-dimethyl-2-oxo-7-(tetrahydro-2H-pyran-4-yl)-1,2-dihydroquinolin-5-yl)-5,6,7,8-tetrahydropyrido[3,2-d]pyrimidin-2-yl)-N-(3-(4-(2,6-dioxopiperidin-3-yl)benzofuran-2-yl)prop-2-yn-1-yl)pyrazine-2-carboxamide]"
> 1000,< 20,> 80,10 to 99,"Cc1cc(-c2ccc3c(c2)n(C)c(=O)n3C)c2cnc(-c3ccc(C(=O)NCC#Cc4ccc5occ(C6CCC(=O)NC6=O)c5c4)nc3)cc2c1 (stereo not drawn) [Example A84, 5-(8-(1,3-dimethyl-2-oxo-2,3-dihydro-1H-benzo[d]imidazol-5-yl)-6-methylisoquinolin-3-yl)-N-(3-(3-(2,6-dioxo-piperidin-3-yl)benzofuran-5-yl)prop-2-yn-1-yl) picolinamide]"
100 to 999,20 to 39,> 80,1 to 9.9,"Cc1cc2c(N3CCCc4nc(-c5ccc(C(=O)NCC#Cc6cc7c(C8CCC(=O)NC8=O)cccc7o6)nc5)ncc43)cc(C3CC4CCC(C3)O4)nc2n(C)c1=O (stereo not drawn) [Example B159, 5-(5-(2-(8-oxabicyclo[3.2.1]octan-3-yl)-6,8-dimethyl-7-oxo-7,8-dihydro-1,8-naphthyridin-4-yl)-5,6,7,8-tetrahydropyrido[3,2-d]pyrimidin-2-yl)-N-(3-(4-(2,6-dioxopiperidin-3-yl)benzofuran-2-yl)prop-2-yn-1-yl)picolinamide]"
> 1000,< 20,> 80,1 to 9.9,"Cc1cc2c(N3CCOc4cc(-c5ccc(C(=O)NCC#Cc6ccc7occ(C8CCC(=O)NC8=O)c7c6)nc5)ncc43)cc(F)cc2n(C)c1=O (stereo not drawn) [Example B123, N-(3-(3-(2,6-dioxopiperidin-3-yl)benzofuran-5-yl)prop-2-yn-1-yl)-5-(4-(7-fluoro-1,3-dimethyl-2-oxo-1,2-dihydroquinolin-5-yl)-3,4-dihydro-2H-pyrido[4,3-b][1,4]oxazin-7-yl)picolinamide]"
> 1000,< 20,> 80,1 to 9.9,"Cc1cc2c(-c3cccc4cc(-c5ccc(C(=O)NCC#Cc6ccc7occ(C8CCC(=O)NC8=O)c7c6)nc5)ncc34)nc(C3CCOCC3)cc2n(C)c1=O (stereo not drawn) [Example B132, 5-(8-(1,3-dimethyl-2-oxo-7-(tetrahydro-2H-pyran-4-yl)-1,2-dihydro-1,6-naphthyridin-5-yl)isoquinolin-3-yl)-N-(3-(3-(2,6-dioxo-piperidin-3-yl)benzofuran-5-yl)prop-2-yn-1-yl)picolinamide]"
> 1000,< 20,> 80,< 1,"Cc1cc2c(N3CCCc4nc(-c5ccc(C(=O)NCC#Cc6cc7c(C8CCC(=O)NC8=O)cccc7o6)nc5)ncc43)cc(C3CCOCC3)nc2n(C)c1=O (stereo not drawn) [Example B47, 5-(5-(6,8-dimethyl-7-oxo-2-(tetrahydro-2H-pyran-4-yl)-7,8-dihydro-1,8-naphthyridin-4-yl)-5,6,7,8-tetrahydropyrido[3,2-d]pyrimidin-2-yl)-N-(3-(4-(2,6-dioxopiperidin-3-yl)benzofuran-2-yl)prop-2-yn-1-yl)picolinamide]"
100 to 999,< 20,> 80,< 1,"Cn1c(=O)n(C)c2cc(N3CCCc4nc(-c5ccc(C(=O)NCC#Cc6cc7c(C8CCC(=O)NC8=O)cccc7o6)nc5)ncc43)ccc21 (stereo not drawn) [Example A226, 5-(5-(1,3-dimethyl-2-oxo-2,3-dihydro-1H-benzo[d]imidazol-5-yl)-5,6,7,8-tetrahydropyrido [3,2-d]pyrimidin-2-yl)-N-(3-(4-(2,6-dioxo-piperidin-3-yl)benzofuran-2-yl)prop-2-yn-1-yl)picolinamide]"
100 to 999,< 20,> 80,1 to 9.9,"Cc1cc2c(N3CCOc4nc(-c5ccc(C(=O)NCC#Cc6cc7c(C8CCC(=O)NC8=O)cccc7o6)nc5)ncc43)cc(C3CCOCC3)cc2n(C)c1=O (stereo not drawn) [Example B96, 5-(5-(1,3-dimethyl-2-oxo-7-(tetrahydro-2H-pyran-4-yl)-1,2-dihydroquinolin-5-yl)-6,7-dihydro-5H-pyrimido[4,5-b][1,4]oxazin-2-yl)-N-(3-(4-(2,6-dioxopiperidin-3-yl)benzofuran-2-yl)prop-2-yn-1-yl)picolinamide]"
> 1000,< 20,> 80,< 1,"Cn1c(=O)n(C)c2c(N3CC(O)C3)nc(-c3cccc4cc(-c5ccc(C(=O)NCC#Cc6ccc7occ(C8CCC(=O)NC8=O)c7c6)nc5)ncc34)cc21 (stereo not drawn) [Example A115, N-(3-(3-(2,6-dioxo-piperidin-3-yl)benzofuran-5-yl)prop-2-yn-1-yl)-5-(8-(4-(3-hydroxyazetidin-1-yl)-1,3-dimethyl-2-oxo-2,3-dihydro-1H-imidazo[4,5-c]pyridin-6-yl)isoquinolin-3-yl)picolinamide]"
> 1000,< 20,60 to 79,10 to 99,"CC(C)c1cc(N2CCOc3cc(-c4ccc(C(=O)NCC#Cc5ccc6occ(C7CCC(=O)NC7=O)c6c5)nc4)ccc32)cc2c1n(C)c(=O)n2C (stereo not drawn) [Example A121, N-(3-(3-(2,6-dioxo-piperidin-3-yl)benzofuran-5-yl)prop-2-yn-1-yl)-5-(4-(7-isopropyl-1,3-dimethyl-2-oxo-2,3-dihydro-1H-benzo [d]imidazol-5-yl)-3,4-dihydro-2H-benzo [b][1,4]oxazin-7-yl)picolinamide]"
> 1000,< 20,> 80,1 to 9.9,"Cc1cc2c(N3CCCc4nc(-c5ccc(C(=O)NCC#Cc6ccc7occ([C@@H]8CCC(=O)NC8=O)c7c6)nc5)ncc43)nc(N3CCOCC3)cc2n(C)c1=O [Example B73, (S)-5-(5-(1,3-dimethyl-7-morpholino-2-oxo-1,2-dihydro-1,6-naphthyridin-5-yl)-5,6,7,8-tetrahydropyrido[3,2-d]pyrimidin-2-yl)-N-(3-(3-(2,6-dioxopiperidin-3-yl)benzofuran-5-yl)prop-2-yn-1-yl)picolinamide]"
10 to 99,40 to 59,> 80,1 to 9.9,"CC(C)c1cc(-c2cccc3cc(-c4ccc(C(=O)NCC#Cc5ccc6oc(F)c(C7CCC(=O)NC7=O)c6c5)nc4)ncc23)cc2c1n(C)c(=O)n2C (stereo not drawn) [Example A158, N-(3-(3-(2,6-dioxo-piperidin-3-yl)-2-fluorobenzofuran-5-yl)prop-2-yn-1-yl)-5-(8-(7-isopropyl-1,3-dimethyl-2-oxo-2,3-dihydro-1H-benzo [d]imidazol-5-yl)isoquinolin-3-yl)picolinamide]"
10 to 99,40 to 59,> 80,1 to 9.9,"CCc1cc(-c2cccc3cc(-c4ccc(C(=O)NCC#Cc5ccc6c(c5)n(C5CCC(=O)NC5=O)c(=O)n6C)nc4)ncc23)c2cc(C)c(=O)n(C)c2c1 (stereo not drawn) [Example B8, N-(3-(3-(2,6-Dioxopiperidin-3-yl)-1-methyl-2-oxo-2,3-dihydro-1H-benzo[d]imidazol-5-yl)prop-2-yn-1-yl)-5-(8-(7-ethyl-1,3-dimethyl-2-oxo-1,2-dihydroquinolin-5-yl)isoquinolin-3-yl)picolinamide]"
